Patent US20220370440A1 (Lead Discovery Center GmbH, priority 2018, published 2022)
pIC50: −log10 of the molar value.

What was measured:
A431 = A431 CellTiter-Glo; assay type: cell-based; conditions: Homo sapiens, A-431; 72 h compound incubation; read-out: A431 CTG IC50
Summary of the method: (§1)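 Luminescence from cellular ATP serves as the viability signal after cells are treated with compound dilutions for 72 h at 37° C. IC50 is derived by curve fitting, with DMSO-treated and 10 μM Staurosporine-treated wells defining the assay window.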

H1975 = H1975 CellTiter-Glo; assay type: cell-based; conditions: Homo sapiens, NCI-H1975; 72 h compound incubation; read-out: H1975 CTG IC50
Summary of the method: as §1

EGFR wt = EGFR wt (Homo sapiens, UniProt P00533); assay: EGFR wt Lance assay; assay type: biochemical
Method: (§2) Inhibition is indicated as […] [nM] (“−”=not measured). Compounds having an activity designated as “A” provided an IC50≤100 nM; compounds having an activity designated as “B” provided an 100 nM<IC50≤500 nM; compounds having an activity designated as “C” provided an 500 nM<IC50≤1000 nM; compounds having an activity designated as “D” provided an 1000 nM<IC50≤100000 nM; and compounds having an activity designated as “E” provided an IC50>10000 nM.

HER2 INS YVMA = target: T1, HER2 INS YVMA (Homo sapiens, UniProt P04626, INS775YVMA); assay: Lance Kinase Activity Assay, HER2 INS YVMA (Her2 Exon 20 INSYVMA Lance); assay type: biochemical; conditions: biochemical Lance assay
T1 construct: purchased DPF
Summary of the method: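 Kinase phosphorylates a ULight-labelled peptide substrate; Eu anti-phospho antibody gives TR-FRET (ex 340 nm, em 665/615 nm). Compounds in 1:3 serial dilution over 8 steps, reaction started with ATP, 1 h at room temperature, stopped with EDTA-containing detection mix for 1 h. IC50 from sigmoidal dose-response curves.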

[1] = Metabolic stability in mouse liver microsomes without cofactor NADPH; assay type: in vitro ADME; conditions: 3 μM test compound, mouse liver microsomes, without NADPH, 50 min, 37° C., LC-MS/MS
Excerpt: There are two major groups of enzyme reactions catalyzed by drug metabolizing enzymes, the so called Phase I and Phase II reactions. The basic processes in phase I reactions are oxidation, reduction and/or hydrolysis mostly catalyzed by the cytochrome P450 (CYP) family of enzymes.
The following procedures describe the determination of the in vitro Phase I metabolic stability of test compounds using liver microsomes by measuring compound depletion over time. Test compound at the concentration of 3 μM was incubated with the liver microsomes from the mouse species and the experiment was performed without NADPH. The depletion of the test compounds was measured over time up to 50 minutes at 37° C. by LC-MS/MS. Different compounds were tested under these conditions for microsomal stability (see Table 5).

[2] = target: Her2 Exon 20 INSYVMA Ba/F3 (Homo sapiens, UniProt P04626, DUP772-775, cells depend on it); assay: Her2 Exon 20 INSYVMA Ba/F3 CellTiter-Glo; assay type: cell-based; conditions: CellTiter-Glo, 72 h, read-out: Her2 Exon 20 INSYVMA Ba/F3 CTG IC50
Summary of the method: (§3)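 Using a 72 h viability readout, compound-treated Ba/F3 cells (pre-incubated 24 h after seeding) were lysed with CellTiter-Glo reagent and luminescence recorded. Potency was expressed as IC50 from a fitted dose–response curve.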

EGFR T790ML858R = EGFR T790ML858R (Homo sapiens, UniProt P00533, L858R/T790M); assay: EGFR T790ML858R Lance assay; assay type: biochemical
Method: as §2

[3] = target: EGFR Exon 20 INSNPH Ba/F3 (Homo sapiens, UniProt P00533, DUP771-773, cells depend on it); assay: EGFR Exon 20 INSNPH Ba/F3 CellTiter-Glo; assay type: cell-based; conditions: CellTiter-Glo, 72 h, read-out: EGFR Exon 20 INSNPH Ba/F3 CTG IC50
Summary of the method: as §3

Sequence of Her2 Exon 20 INSYVMA Ba/F3 (P04626 with tags, fused parts or gaps DUP772-775): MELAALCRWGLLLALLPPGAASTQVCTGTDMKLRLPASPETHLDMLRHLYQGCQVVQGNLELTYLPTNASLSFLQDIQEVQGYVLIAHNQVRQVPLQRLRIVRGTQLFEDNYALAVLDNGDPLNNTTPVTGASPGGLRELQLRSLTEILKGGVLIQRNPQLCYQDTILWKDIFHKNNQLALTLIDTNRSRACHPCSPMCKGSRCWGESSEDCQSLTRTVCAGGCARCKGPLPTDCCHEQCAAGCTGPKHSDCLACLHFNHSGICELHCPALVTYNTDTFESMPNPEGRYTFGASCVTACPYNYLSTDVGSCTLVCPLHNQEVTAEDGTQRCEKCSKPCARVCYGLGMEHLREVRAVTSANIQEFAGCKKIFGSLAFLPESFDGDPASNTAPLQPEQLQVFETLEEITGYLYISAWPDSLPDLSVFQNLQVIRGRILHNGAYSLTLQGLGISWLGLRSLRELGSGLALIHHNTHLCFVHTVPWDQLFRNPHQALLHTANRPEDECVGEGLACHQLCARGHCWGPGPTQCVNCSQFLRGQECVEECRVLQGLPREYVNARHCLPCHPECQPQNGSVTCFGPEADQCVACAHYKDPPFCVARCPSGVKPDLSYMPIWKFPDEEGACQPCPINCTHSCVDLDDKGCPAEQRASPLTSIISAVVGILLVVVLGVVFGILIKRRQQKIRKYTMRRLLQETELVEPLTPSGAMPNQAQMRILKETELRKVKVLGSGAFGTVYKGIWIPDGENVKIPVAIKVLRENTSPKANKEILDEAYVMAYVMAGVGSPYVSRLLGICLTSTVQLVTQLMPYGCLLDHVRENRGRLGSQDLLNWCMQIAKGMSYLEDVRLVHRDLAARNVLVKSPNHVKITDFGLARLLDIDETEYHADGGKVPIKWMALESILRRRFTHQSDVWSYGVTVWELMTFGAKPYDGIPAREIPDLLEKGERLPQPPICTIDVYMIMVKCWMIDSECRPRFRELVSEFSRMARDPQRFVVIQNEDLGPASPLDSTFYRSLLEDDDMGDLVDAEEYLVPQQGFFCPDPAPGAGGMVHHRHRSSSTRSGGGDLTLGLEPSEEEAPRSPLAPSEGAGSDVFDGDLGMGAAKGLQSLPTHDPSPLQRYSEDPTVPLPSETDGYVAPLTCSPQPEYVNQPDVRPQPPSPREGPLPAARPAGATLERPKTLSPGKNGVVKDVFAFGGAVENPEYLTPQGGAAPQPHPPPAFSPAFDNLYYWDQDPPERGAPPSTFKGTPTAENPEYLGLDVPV
Sequence of EGFR Exon 20 INSNPH Ba/F3 (P00533 with tags, fused parts or gaps DUP771-773): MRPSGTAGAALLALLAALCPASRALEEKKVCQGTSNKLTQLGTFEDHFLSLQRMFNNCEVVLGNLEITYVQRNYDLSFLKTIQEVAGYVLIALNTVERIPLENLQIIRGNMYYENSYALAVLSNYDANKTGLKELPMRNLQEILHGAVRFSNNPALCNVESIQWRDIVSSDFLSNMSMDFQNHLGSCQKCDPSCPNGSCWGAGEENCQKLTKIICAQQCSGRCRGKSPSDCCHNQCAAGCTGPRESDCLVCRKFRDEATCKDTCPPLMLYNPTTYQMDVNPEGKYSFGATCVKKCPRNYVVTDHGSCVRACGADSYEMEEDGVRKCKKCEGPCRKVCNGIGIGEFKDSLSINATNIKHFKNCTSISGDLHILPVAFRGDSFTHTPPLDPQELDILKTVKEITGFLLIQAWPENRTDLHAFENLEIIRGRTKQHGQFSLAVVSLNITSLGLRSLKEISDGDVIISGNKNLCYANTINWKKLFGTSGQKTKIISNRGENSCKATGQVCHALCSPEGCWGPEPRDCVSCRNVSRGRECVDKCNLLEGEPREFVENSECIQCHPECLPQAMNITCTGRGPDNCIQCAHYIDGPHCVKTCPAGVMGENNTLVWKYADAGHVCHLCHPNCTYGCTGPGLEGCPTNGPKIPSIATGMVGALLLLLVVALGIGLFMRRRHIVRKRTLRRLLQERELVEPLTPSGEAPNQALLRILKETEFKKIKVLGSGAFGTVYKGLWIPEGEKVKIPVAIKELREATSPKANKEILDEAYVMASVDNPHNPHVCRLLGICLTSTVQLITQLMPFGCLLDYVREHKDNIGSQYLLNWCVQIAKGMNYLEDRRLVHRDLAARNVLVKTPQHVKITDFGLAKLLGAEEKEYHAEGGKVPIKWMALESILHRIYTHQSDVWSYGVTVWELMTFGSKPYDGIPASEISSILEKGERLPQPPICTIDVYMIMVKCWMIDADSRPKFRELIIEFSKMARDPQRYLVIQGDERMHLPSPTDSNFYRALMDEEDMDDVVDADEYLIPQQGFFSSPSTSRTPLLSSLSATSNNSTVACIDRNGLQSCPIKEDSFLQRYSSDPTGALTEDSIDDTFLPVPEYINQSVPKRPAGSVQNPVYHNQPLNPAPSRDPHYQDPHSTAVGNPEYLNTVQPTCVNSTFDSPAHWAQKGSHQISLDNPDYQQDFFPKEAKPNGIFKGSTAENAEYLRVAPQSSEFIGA
Sequence of EGFR wt (P00533 25-1210): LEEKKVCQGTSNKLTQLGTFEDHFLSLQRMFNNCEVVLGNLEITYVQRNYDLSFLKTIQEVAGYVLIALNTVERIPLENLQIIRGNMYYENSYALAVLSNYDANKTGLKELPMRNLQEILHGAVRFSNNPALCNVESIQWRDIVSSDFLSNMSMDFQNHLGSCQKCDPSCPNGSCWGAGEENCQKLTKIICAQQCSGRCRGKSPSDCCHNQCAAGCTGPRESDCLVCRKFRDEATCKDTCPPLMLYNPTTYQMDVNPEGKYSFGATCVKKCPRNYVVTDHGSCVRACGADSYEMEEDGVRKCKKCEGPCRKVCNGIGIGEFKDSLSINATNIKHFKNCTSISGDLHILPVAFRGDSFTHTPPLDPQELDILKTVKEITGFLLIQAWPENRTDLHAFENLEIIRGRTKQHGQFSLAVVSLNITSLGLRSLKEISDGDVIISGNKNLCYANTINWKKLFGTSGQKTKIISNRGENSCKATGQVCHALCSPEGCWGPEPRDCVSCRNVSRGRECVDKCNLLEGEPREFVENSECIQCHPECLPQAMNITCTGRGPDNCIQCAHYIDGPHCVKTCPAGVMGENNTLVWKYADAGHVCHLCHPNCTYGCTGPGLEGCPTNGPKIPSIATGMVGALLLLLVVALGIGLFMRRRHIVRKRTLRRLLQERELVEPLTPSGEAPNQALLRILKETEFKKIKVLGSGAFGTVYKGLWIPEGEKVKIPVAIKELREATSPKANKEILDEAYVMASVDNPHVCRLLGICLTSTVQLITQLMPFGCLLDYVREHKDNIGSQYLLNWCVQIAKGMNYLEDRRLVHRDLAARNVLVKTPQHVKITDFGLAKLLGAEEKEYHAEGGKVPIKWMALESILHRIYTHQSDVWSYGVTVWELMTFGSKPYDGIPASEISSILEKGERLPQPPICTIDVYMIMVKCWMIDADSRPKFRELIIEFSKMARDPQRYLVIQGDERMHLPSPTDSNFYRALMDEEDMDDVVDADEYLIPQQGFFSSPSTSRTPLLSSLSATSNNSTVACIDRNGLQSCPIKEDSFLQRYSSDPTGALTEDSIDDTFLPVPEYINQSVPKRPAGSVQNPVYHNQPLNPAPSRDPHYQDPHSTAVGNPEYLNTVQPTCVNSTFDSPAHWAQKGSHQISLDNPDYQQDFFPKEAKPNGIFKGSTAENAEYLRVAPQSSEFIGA
Sequence of EGFR T790ML858R (P00533 25-1210 T790M/L858R): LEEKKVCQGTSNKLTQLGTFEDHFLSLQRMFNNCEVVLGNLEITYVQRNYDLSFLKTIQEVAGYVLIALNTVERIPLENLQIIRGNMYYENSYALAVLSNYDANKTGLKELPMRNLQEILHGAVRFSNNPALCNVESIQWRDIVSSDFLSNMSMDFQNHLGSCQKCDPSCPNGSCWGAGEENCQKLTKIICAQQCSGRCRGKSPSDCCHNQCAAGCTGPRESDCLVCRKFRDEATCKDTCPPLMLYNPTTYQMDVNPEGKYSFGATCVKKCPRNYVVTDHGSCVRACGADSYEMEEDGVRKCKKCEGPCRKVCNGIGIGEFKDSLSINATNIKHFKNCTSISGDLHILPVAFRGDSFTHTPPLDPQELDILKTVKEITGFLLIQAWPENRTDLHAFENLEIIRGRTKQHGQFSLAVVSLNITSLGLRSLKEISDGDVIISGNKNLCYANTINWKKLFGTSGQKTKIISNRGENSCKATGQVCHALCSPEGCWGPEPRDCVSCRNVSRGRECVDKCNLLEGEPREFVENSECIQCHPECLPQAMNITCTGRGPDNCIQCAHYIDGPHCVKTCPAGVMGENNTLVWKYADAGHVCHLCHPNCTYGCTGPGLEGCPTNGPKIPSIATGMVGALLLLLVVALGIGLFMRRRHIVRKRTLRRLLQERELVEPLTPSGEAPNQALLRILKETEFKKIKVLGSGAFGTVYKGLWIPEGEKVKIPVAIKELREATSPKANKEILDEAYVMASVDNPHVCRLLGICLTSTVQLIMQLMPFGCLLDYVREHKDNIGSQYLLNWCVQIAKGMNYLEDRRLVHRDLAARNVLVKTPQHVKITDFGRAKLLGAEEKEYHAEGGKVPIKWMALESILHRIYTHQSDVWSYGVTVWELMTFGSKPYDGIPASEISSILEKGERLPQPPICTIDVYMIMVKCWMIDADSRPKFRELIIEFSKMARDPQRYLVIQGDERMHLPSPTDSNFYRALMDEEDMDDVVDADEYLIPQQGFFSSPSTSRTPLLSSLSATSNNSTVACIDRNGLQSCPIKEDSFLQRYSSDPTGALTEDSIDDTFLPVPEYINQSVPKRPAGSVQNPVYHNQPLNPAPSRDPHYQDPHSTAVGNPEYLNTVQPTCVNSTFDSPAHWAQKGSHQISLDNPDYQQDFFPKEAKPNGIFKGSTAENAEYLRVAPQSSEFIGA

pIC50 (A431) | pIC50 (H1975) | pIC50 (EGFR wt) | pIC50 (HER2 INS YVMA) | Stability in presence of mouse liver microsomes without cofactor NADPH [% remaining after 50 min] [1] [% remaining after 50 min] | GI50 [2] [nM] | pIC50 (EGFR T790ML858R) | GI50 [3] [nM] | Compound
6.00 to 6.30 | ≥ 7.00 | ≥ 7.00 | ≥ 7.00 | 93 | 100 to 500 | ≥ 7.00 | 100 to 500 | C=CC(=O)N1CCc2ccc(-c3c(-c4ccc(N5CCN(C)CC5)cc4)[nH]c4nccc(OC)c34)cc21 [Example 110, 1-(6-(4-methoxy-2-(4-(4-methylpiperazin-1-yl)phenyl)-1H-pyrrolo[2,3-b]pyridin-3-yl)indolin-1-yl)prop-2-en-1-one]
4.00 to 6.00 | ≥ 7.00 | ≥ 7.00 | ≥ 7.00 | >99 | 100 to 500 | ≥ 7.00 | 100 to 500 | C=CC(=O)Nc1cc(-c2c(-c3ccc(N4CCN(C)CC4)cc3)[nH]c3ncc(C(=O)OC4CC4)cc23)ccc1C [Example 138, cyclopropyl 3-(3-acrylamido-4-methylphenyl)-2-(4-(4-methylpiperazin-1-yl)phenyl)-1H-pyrrolo[2,3-b]pyridine-5-carboxylate]
– | ≥ 7.00 | ≥ 7.00 | ≥ 7.00 | >99 | 500 to 1000 | ≥ 7.00 | 500 to 1000 | C=CC(=O)Nc1cc(-c2c(-c3cccc(OCCCN(C)C)c3)[nH]c3nccc(Cl)c23)ccc1C [Example 20, N-(5-(4-chloro-2-(3-(3-(dimethylamino)propoxy)phenyl)-1H-pyrrolo[2,3-b]pyridin-3-yl)-2-methylphenyl)acrylamide]
– | ≥ 7.00 | ≥ 7.00 | 6.30 to 7.00 | >99 | 500 to 1000 | ≥ 7.00 | 500 to 1000 | C=CC(=O)Nc1cc(-c2c(-c3ccnc(N4CCOCC4)c3)[nH]c3nccc(Cl)c23)ccc1C [Example 32, N-(5-(4-chloro-2-(2-morpholinopyridin-4-yl)-1H-pyrrolo[2,3-b]pyridin-3-yl)-2-methylphenyl)acrylamide]
– | 6.30 to 7.00 | 6.30 to 7.00 | 6.00 to 6.30 | >99 | 1000 to 10000 | ≥ 7.00 | 1000 to 10000 | C=CC(=O)Nc1cc(-c2c(-c3cccc(C(=O)N4CCOCC4)c3)[nH]c3nccc(Cl)c23)ccc1C [Example 27, N-(5-(4-chloro-2-(3-(morpholine-4-carbonyl)phenyl)-1H-pyrrolo[2,3-b]pyridin-3-yl)-2-methylphenyl)acrylamide]
– | 6.30 to 7.00 | 6.30 to 7.00 | 6.30 to 7.00 | >99 | 500 to 1000 | ≥ 7.00 | 500 to 1000 | C=CC(=O)Nc1cc(-c2c(-c3cncnc3)[nH]c3nccc(Cl)c23)ccc1C [Example 24, N-(5-(4-chloro-2-(pyrimidin-5-yl)-1H-pyrrolo[2,3-b]pyridin-3-yl)-2-methylphenyl)acrylamide]
– | 6.30 to 7.00 | ≥ 7.00 | 6.00 to 6.30 | >99 | 500 to 1000 | ≥ 7.00 | 500 to 1000 | C=CC(=O)Nc1cc(-c2c(-c3cccc(N4CCOCC4)c3)[nH]c3nccc(Cl)c23)ccc1C [Example 6, N-(5-(4-chloro-2-(3-morpholinophenyl)-1H-pyrrolo[2,3-b]pyridin-3-yl)-2-methylphenyl)acrylamide]
– | ≥ 7.00 | ≥ 7.00 | ≥ 7.00 | 94 | 500 to 1000 | ≥ 7.00 | 500 to 1000 | C=CC(=O)Nc1cc(-c2c(-c3ccc(C4CCN(C)CC4)cc3)[nH]c3nccc(OCC)c23)ccc1C [Example 147, 2,2,2-trifluoroacetate]
– | 6.30 to 7.00 | 6.30 to 7.00 | 6.00 to 6.30 | >99 | 500 to 1000 | ≥ 7.00 | 1000 to 10000 | C=CC(=O)Nc1cc(-c2c(-c3cccc(CN4CCOCC4)c3)[nH]c3nccc(Cl)c23)ccc1C [Example 7, N-(5-(4-chloro-2-(3-(morpholinomethyl)phenyl)-1H-pyrrolo[2,3-b]pyridin-3-yl)-2-methylphenyl)acrylamide]
– | 6.30 to 7.00 | ≥ 7.00 | 6.30 to 7.00 | 68 | 500 to 1000 | ≥ 7.00 | 500 to 1000 | C=CC(=O)Nc1cc(-c2c(-c3ccc(NC(C)=O)cc3)[nH]c3nccc(Cl)c23)ccc1C [Example 14, N-(5-(2-(4-acetamidophenyl)-4-chloro-1H-pyrrolo[2,3-b]pyridin-3-yl)-2-methylphenyl)acrylamide]
– | ≥ 7.00 | ≥ 7.00 | 6.30 to 7.00 | 93 | 500 to 1000 | ≥ 7.00 | 500 to 1000 | C=CC(=O)Nc1cc(-c2c(-c3ccc(N4CCN(C)CC4)cc3OC)[nH]c3nccc(Cl)c23)ccc1C [Example 21, N-(5-(4-chloro-2-(2-methoxy-4-(4-methylpiperazin-1-yl)phenyl)-1H-pyrrolo[2,3-b]pyridin-3-yl)-2-methylphenyl)acrylamide]
– | ≥ 7.00 | ≥ 7.00 | ≥ 7.00 | >99 | 100 to 500 | ≥ 7.00 | 100 to 500 | C=CC(=O)Nc1cc(-c2c(-c3ccc(C(=O)N4CCN(C)CC4)cc3)[nH]c3nccc(Cl)c23)ccc1C [Example 9, N-(5-(4-chloro-2-(4-(4-methylpiperazine-1-carbonyl)phenyl)-1H-pyrrolo[2,3-b]pyridin-3-yl)-2-methylphenyl)acrylamide]
– | ≥ 7.00 | ≥ 7.00 | 6.30 to 7.00 | >99 | 100 to 500 | ≥ 7.00 | 100 to 500 | C=CC(=O)Nc1cc(-c2c(-c3ccc(NS(C)(=O)=O)cc3)[nH]c3nccc(Cl)c23)ccc1C [Example 12, N-(5-(4-chloro-2-(4-(methylsulfonamido)phenyl)-1H-pyrrolo[2,3-b]pyridin-3-yl)-2-methylphenyl)acrylamide]
– | 6.30 to 7.00 | 6.00 to 6.30 | 6.30 to 7.00 | >99 | 1000 to 10000 | ≥ 7.00 | 1000 to 10000 | C=CC(=O)Nc1cc(-c2c(-c3ccc(N4CCN(C(C)=O)CC4)nc3)[nH]c3nccc(Cl)c23)ccc1C [Example 31, N-(5-(2-(6-(4-acetylpiperazin-1-yl)pyridin-3-yl)-4-chloro-1H-pyrrolo[2,3-b]pyridin-3-yl)-2-methylphenyl)acrylamide]
– | ≥ 7.00 | ≥ 7.00 | ≥ 7.00 | >99 | 500 to 1000 | ≥ 7.00 | 500 to 1000 | C=CC(=O)Nc1cc(-c2c(-c3ccc(C4CCNCC4)cc3)[nH]c3nccc(Cl)c23)ccc1C [Example 29, N-(5-(4-chloro-2-(4-(piperidin-4-yl)phenyl)-1H-pyrrolo[2,3-b]pyridin-3-yl)-2-methylphenyl)acrylamide]
